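In this assay, cells in 96-well plates receive the compound at five concentrations for 48 hours. Endpoints are linearly interpolated between the surrounding concentrations. GI50 = concentration required for 50% inhibition of growth. TGI denotes the concentration required for complete inhibition of growth.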
Assays:
Test in all cases: NCI tumour cell line growth inhibition, 48 h
[1] = system: A498 renal
[2] = system: ACHN renal
[3] = system: COLO 205 colon
[4] = system: HOP-92 NSCLC
[5] = system: MALME-3M melanoma
[6] = system: MDA-MB-231 breast
[7] = system: OVCAR-5 ovarian
[8] = system: SF-268 CNS
[9] = system: TK-10 renal
[10] = system: U251 CNS

Row | SMILES | TGI [1] [nM] | TGI [2] [nM] | TGI [3] [nM] | TGI [4] [nM] | TGI [5] [nM] | TGI [6] [nM] | TGI [7] [nM] | TGI [8] [nM] | TGI [9] [nM] | TGI [10] [nM] | GI50 [1] [nM] | GI50 [2] [nM] | GI50 [3] [nM] | GI50 [4] [nM] | GI50 [5] [nM] | GI50 [6] [nM] | GI50 [7] [nM] | GI50 [8] [nM] | GI50 [9] [nM] | GI50 [10] [nM]
1 | CSC(=Nc1nnc(-c2ccc([N+](=O)[O-])cc2)s1)SC | 64600 | > 100000 | > 100000 | 33100 | > 100000 | > 100000 | > 100000 | 68000 | 44800 | 58100 |  |  |  |  |  |  |  |  |  | 
2 | CCN(Cc1cc(Nc2nc(C)cn3c(-c4cn[nH]c4)cnc23)sn1)C(C)(C)CO | 16.3 | 11900 | 132 | 71.4 | 16200 | 4350 | 10700 | 1870 | 2240 | 2210 | < 10 | 30.6 | < 10 | 11.9 | 648 | 50.8 | 67.6 | 37.6 | 50.7 | 28.9
3 | COC12C=C/C(=C(/C(=O)OCc3cncnc3)C(=O)CCCCCCCCC3(OC)C=C/C(=C(/C(=O)OCc4cncnc4)C(=O)CCCCCCCC1)O3)O2 | 1700 | 1080 | 2250 | 2180 |  | > 50000 | 2030 | 4000 | 1930 | 1060 | 961 | 360 | 587 | 1000 |  | 597 | 783 | 312 | 689 | 212
4 | N#Cc1ccc(OCc2nc(N)nc(N)c2-c2ccc(Cl)c(Cl)c2)cc1 | 10800 | > 100000 | > 100000 | > 100000 | 84800 | > 100000 | > 100000 | > 100000 |  | > 100000 | 1430 | 800 | 4020 | 4600 | 23500 | 4400 | 2380 | 2760 |  | 589
5 | CCOc1cccc(/C=N/N=C2\C(=O)Nc3c(Cl)cc(Cl)cc32)c1O | > 100000 | > 100000 | > 100000 | > 100000 | > 100000 | > 100000 | > 100000 |  | > 100000 | > 100000 |  |  |  |  |  |  |  |  |  | 

Source: PubChem BioAssay (NCI)
